Reference: ChEMBL document CHEMBL5344412, “Dual degradation mechanism of GPX4 degrader in induction of ferroptosis exerting anti-resistant tumor effect” (Eur J Med Chem, 2023)
Blank lines part the entries; values can stand above or below the molecule they belong to. Activity calls are given as the source filed them. The rule behind the calls is not given here.

Legend:
[1] = molecular target: T1, Phospholipid hydroperoxide glutathione peroxidase GPX4 (Homo sapiens) (UniProt P36969); experiment: Induction of GPX4 degradation in human HT-1080 cells at 100 nM incubated for 6 hrs relative to control; type: cell-based
T1 sequence (whole entry): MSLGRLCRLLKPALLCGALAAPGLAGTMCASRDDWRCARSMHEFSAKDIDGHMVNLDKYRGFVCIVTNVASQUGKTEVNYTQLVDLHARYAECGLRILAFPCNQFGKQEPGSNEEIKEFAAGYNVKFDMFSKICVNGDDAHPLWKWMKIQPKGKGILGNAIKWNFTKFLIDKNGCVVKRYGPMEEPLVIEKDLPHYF

[2] = system: NCI-H1650; experiment: Antiproliferative activity against human NCI-H1650 cells assessed as inhibition of cell growth incubated for 24 hrs by MTT assay; type: functional, cell-based; settings: NCI-H1650, 24 h
[3] = system: Calu-1; experiment: Antiproliferative activity against human Calu-1 cells assessed as inhibition of cell growth incubated for 24 hrs by MTT assay; type: functional, cell-based; settings: Calu-1, 24 h
[4] = molecular target: T1, Phospholipid hydroperoxide glutathione peroxidase GPX4 (Homo sapiens); experiment: Induction of GPX4 degradation in human HT-1080 cells at 0.1 uM by Western blot analysis; type: cell-based
[5] = molecular target: T1, Phospholipid hydroperoxide glutathione peroxidase GPX4 (Homo sapiens); experiment: Induction of GPX4 degradation in human HT-1080 cells at 0.1 uM incubated for 6 hrs in presence of PYR41 by Western blot analysis; type: cell-based
[6] = system: HT-1080; experiment: Antiproliferative activity against human HT-1080 cells assessed as inhibition of cell growth incubated for 24 hrs by MTT assay; type: functional, cell-based; settings: HT-1080, 24 h
[7] = molecular target: T1, Phospholipid hydroperoxide glutathione peroxidase GPX4 (Homo sapiens); experiment: Induction of GPX4 degradation in human HT-1080 cells at 0.1 uM incubated for 24 hrs in presence of 20 uM of liproxstatin-1 by Western blot analysis; type: cell-based
[8] = molecular target: T1, Phospholipid hydroperoxide glutathione peroxidase GPX4 (Homo sapiens); experiment: Induction of GPX4 degradation in human HT-1080 cells at 0.1 uM incubated for 6 hrs in presence of […] by Western blot analysis; type: cell-based
[9] = Antiproliferative activity against human Gefitinib-resistant H1650 cell assessed as inhibition of cell growth incubated for 24 hrs by MTT assay; type: functional, cell-based
[10] = system: HT-1080; experiment: Induction of ferroptosis in human HT-1080 cells assessed as increase in cell survival at 0.1 uM incubated for 24 hrs in presence of 0.185 uM of liproxstatin-1 by MTT assay; type: functional
[11] = molecular target: T1, Phospholipid hydroperoxide glutathione peroxidase GPX4 (Homo sapiens); experiment: Induction of GPX4 degradation in human Calu-1 cells at 0.3 uM measured for 4 hrs by Western blot analysis; type: cell-based
[12] = system: HT-1080; experiment: Induction of ferroptosis in human HT-1080 cells assessed as increase in cell survival at 0.1 uM incubated for 24 hrs in presence of 0.020 uM of liproxstatin-1 by MTT assay; type: functional
[13] = system: HT-1080; experiment: Induction of ferroptosis in human HT-1080 cells assessed as increase in cell survival at 0.1 uM incubated for 24 hrs in presence of 0.556 uM of liproxstatin-1 by MTT assay; type: functional
[14] = system: HT-1080; experiment: Induction of ferroptosis in human HT-1080 cells assessed as increase in cell survival at 0.1 uM incubated for 24 hrs in presence of 0.061 uM of liproxstatin-1 by MTT assay; type: functional
[15] = Toxicity in Balb/c nude mouse xenografted with human HT-1080 cells assessed as change in body weight at 200 mg/kg, sc measured for 16 days; type: organism-based; settings: in vivo, 384 h, time 16 day
[16] = molecular target: T1, Phospholipid hydroperoxide glutathione peroxidase GPX4 (Homo sapiens); experiment: Induction of GPX4 degradation in human HT-1080 cells at 0.1 uM measured for 1 hr by Western blot analysis; type: cell-based
[17] = molecular target: T1, Phospholipid hydroperoxide glutathione peroxidase GPX4 (Homo sapiens); experiment: Induction of GPX4 degradation in human HT-1080 cells at 0.1 uM incubated for 24 hrs in presence of Baf-A1 by Western blot analysis; type: cell-based
[18] = molecular target: T2, Phospholipid hydroperoxide glutathione peroxidase GPX4 (Homo sapiens, UniProt P36969); experiment: (§1) Induction of GPX4 degradation in human Gefitinib-resistant H1650 cells incubated for 24 hrs by Western blot analysis; type: cell-based, Gefitinib-resistant H1650 cell
T2 sequence (P36969 whole entry): T1 sequence (whole entry)

[19] = molecular target: T1, Phospholipid hydroperoxide glutathione peroxidase GPX4 (Homo sapiens); experiment: as §1; type: cell-based; settings: Gefitinib-resistant H1650 cell, dose 10-1000 nM
[20] = molecular target: T2, Phospholipid hydroperoxide glutathione peroxidase GPX4; experiment: (§2) Induction of GPX4 degradation in human HT-1080 cells measured for 6 hrs by Western blot analysis; type: cell-based
[21] = molecular target: T1, Phospholipid hydroperoxide glutathione peroxidase GPX4 (Homo sapiens); experiment: as §2; type: cell-based; settings: dose 0.3-1000 nM
[22] = molecular target: T2, Phospholipid hydroperoxide glutathione peroxidase GPX4; experiment: (§3) Induction of GPX4 degradation in human NCI-H1650 cells incubated for 24 hrs by Western blot analysis; type: cell-based
[23] = molecular target: T1, Phospholipid hydroperoxide glutathione peroxidase GPX4 (Homo sapiens); experiment: as §3; type: cell-based; settings: dose 10-1000 nM
[24] = molecular target: T1, Phospholipid hydroperoxide glutathione peroxidase GPX4 (Homo sapiens); experiment: Induction of GPX4 degradation in human HT-1080 cells at 0.1 uM incubated for 24 hrs in presence of Nec-1 by Western blot analysis; type: cell-based
[25] = molecular target: T1, Phospholipid hydroperoxide glutathione peroxidase GPX4 (Homo sapiens); experiment: Induction of GPX4 degradation in human Calu-1 cells at 0.3 uM measured for 8 hrs by Western blot analysis; type: cell-based
[26] = system: HT-1080; experiment: Induction of ROS production in human HT-1080 cells assessed as increase in ROS positive cells at 0.1 uM preincubated with liproxstatin-1 for 2 hrs followed by compound addition and measured after for 7 hrs by C11-BODIPY581/891 staining based flow cytometry analysis; type: functional, cell-based
[27] = system: HT-1080; experiment: Induction of ferroptosis in human HT-1080 cells assessed as increase in cell survival at 0.1 uM incubated for 24 hrs in presence of 5 uM of liproxstatin-1 by MTT assay; type: functional
[28] = molecular target: T2, Phospholipid hydroperoxide glutathione peroxidase GPX4; experiment: (§4) Induction of GPX4 degradation in human Calu-1 cells measured for 24 hrs by Western blot analysis; type: cell-based
[29] = molecular target: T1, Phospholipid hydroperoxide glutathione peroxidase GPX4 (Homo sapiens); experiment: as §4; type: cell-based; settings: dose 0.1-10000 nM
[30] = system: HT-1080; experiment: Induction of ferroptosis in human HT-1080 cells assessed as increase in cell survival at 0.1 uM incubated for 24 hrs in presence of 0.006 uM of liproxstatin-1 by MTT assay; type: functional
[31] = molecular target: T1, Phospholipid hydroperoxide glutathione peroxidase GPX4 (Homo sapiens); experiment: Induction of GPX4 degradation in human HT-1080 cells at 0.1 uM measured for 6 hrs by Western blot analysis; type: cell-based
[32] = molecular target: T1, Phospholipid hydroperoxide glutathione peroxidase GPX4 (Homo sapiens); experiment: Induction of GPX4 degradation in human HT-1080 cells at 0.1 uM measured for 24 hrs by Western blot analysis; type: cell-based
[33] = system: HT-1080; experiment: Induction of ROS production in human HT-1080 cells assessed as increase in ROS positive cells at 0.1 uM incubated for 4 hrs by C11-BODIPY581/891 staining based flow cytometry analysis; type: functional, cell-based
[34] = molecular target: T1, Phospholipid hydroperoxide glutathione peroxidase GPX4 (Homo sapiens); experiment: Induction of GPX4 degradation in human NCI-H1650 cells at 0.3 uM incubated for 24 hrs by Western blot analysis; type: cell-based
[35] = system: HT-1080; experiment: Induction of ferroptosis in human HT-1080 cells assessed as increase in cell survival at 0.1 uM incubated for 24 hrs in presence of 1.670 uM of liproxstatin-1 by MTT assay; type: functional
[36] = molecular target: T1, Phospholipid hydroperoxide glutathione peroxidase GPX4 (Homo sapiens); experiment: Induction of GPX4 degradation in human HT-1080 cells at 0.1 uM pretreated for 2 hrs followed by V5 addition and measured after 6 hrs by Western blot analysis; type: cell-based; settings: time 8.0 hrs
[37] = molecular target: T1, Phospholipid hydroperoxide glutathione peroxidase GPX4 (Homo sapiens); experiment: Induction of GPX4 degradation in human HT-1080 cells at 0.1 uM incubated for 24 hrs in presence of ZVF by Western blot analysis; type: cell-based

Structure (SMILES): COC(=O)[C@H]1Cc2c([nH]c3ccccc23)[C@H](c2ccc(C(=O)N3CCN(CCCCCCCCCCCN[C@H](C(=O)N4C[C@H](O)C[C@H]4C(=O)N[C@@H](C)c4ccc(-c5scnc5C)cc4)C(C)(C)C)CC3)cc2)N1C(=O)CCl
- Activity [1]: 52%

Structure (SMILES): COC(=O)c1ccc([C@H]2c3[nH]c4ccccc4c3C[C@H](C(=O)OC)N2C(=O)CCl)cc1
- IC50 [2]: 7750 nM
- IC50 [3]: 50 nM
- Activity [4]: Active
- Activity [5]: inactive
- IC50 [6]: 130 nM
- Activity [7]: inactive
- Activity [8]: inactive
- IC50 [9]: 5520 nM

Structure (SMILES): COC(=O)[C@H]1Cc2c([nH]c3ccccc23)[C@H](c2ccc(C(=O)N3CCN(CCCCCCCCCCCCCCN[C@H](C(=O)N4C[C@H](O)C[C@H]4C(=O)N[C@@H](C)c4ccc(-c5scnc5C)cc4)C(C)(C)C)CC3)cc2)N1C(=O)CCl
- Activity [1]: 55%

Structure (SMILES): COC(=O)[C@H]1Cc2c([nH]c3ccccc23)[C@H](c2ccc(C(=O)N3CCN(CCCCCCCCCCCCN[C@H](C(=O)N4C[C@H](O)C[C@H]4C(=O)N[C@@H](C)c4ccc(-c5scnc5C)cc4)C(C)(C)C)CC3)cc2)N1C(=O)CCl
- Activity [1]: 60%

Structure (SMILES): COC(=O)[C@H]1Cc2c([nH]c3ccccc23)[C@H](c2ccc(C(=O)N3CCN(CCCCCCCCCCCCCN[C@H](C(=O)N4C[C@H](O)C[C@H]4C(=O)N[C@@H](C)c4ccc(-c5scnc5C)cc4)C(C)(C)C)CC3)cc2)N1C(=O)CCl
- Activity [1]: 63%
- IC50 [2]: 2100 nM
- Activity [10]: 92.5%
- Activity [11]: Active
- IC50 [3]: 25 nM
- Activity [12]: 82.7%
- Activity [13]: 91.5%
- Activity [14]: 82.7%
- Activity [15]: Non-Toxic
- Activity [16]: Active
- Activity [17]: inactive
- Activity [4]: Active
- EC50 [18]: 25.6 nM
- Activity [19]: Dose-Dependent Effect
- EC50 [20]: 23.3 nM
- Activity [21]: Dose-Dependent Effect
- EC50 [22]: 42.7 nM
- Activity [23]: Dose-Dependent Effect
- Activity [24]: inactive
- Activity [25]: 100%
- Activity [26]: Active
- Activity [5]: inactive
- IC50 [6]: 58 nM
- Activity [27]: 92.1%
- EC50 [28]: 136 nM
- Activity [29]: Dose-Dependent Effect
- Activity [30]: 74.8%
- Activity [31]: 100%
- Activity [32]: Active
- Activity [7]: Active
- Activity [33]: Active
- Activity [34]: 100%
- Activity [35]: 88.5%
- Activity [8]: inactive
- Activity [36]: inactive
- IC50 [9]: 1560 nM
- Activity [37]: inactive

Results, then the molecule that gave them:

- IC50 [3]: 630 nM
Structure (SMILES): Cc1onc(C(=O)N2CCN(C(c3ccc(Cl)cc3)c3ccc(Cl)cc3)CC2)c1[N+](=O)[O-]

- Activity [1]: 39%
Structure (SMILES): COC(=O)[C@H]1Cc2c([nH]c3ccccc23)[C@H](c2ccc(C(=O)N3CCN(CCCCCCCCCN[C@H](C(=O)N4C[C@H](O)C[C@H]4C(=O)N[C@@H](C)c4ccc(-c5scnc5C)cc4)C(C)(C)C)CC3)cc2)N1C(=O)CCl

- Activity [1]: 36%
Structure (SMILES): COC(=O)[C@H]1Cc2c([nH]c3ccccc23)[C@H](c2ccc(C(=O)N3CCN(CCCCCCCN[C@H](C(=O)N4C[C@H](O)C[C@H]4C(=O)N[C@@H](C)c4ccc(-c5scnc5C)cc4)C(C)(C)C)CC3)cc2)N1C(=O)CCl
